Drawing on ChEMBL document CHEMBL1159192, “PD 165929 the first high affinity non-peptide neuromedin-B (NMB) receptor selective antagonist” (Bioorg Med Chem Lett, 1996), this text covers Ki, Kb and IC50 for 18 molecules.

The Ki is a dissociation constant, usually derived from enzyme kinetics or from competition with a known ligand. Higher therefore signals weaker binding. A word on the IC50: it is the concentration that gives 50% inhibition.

In experiment [1] the target is Gastrin-releasing peptide receptor (Homo sapiens, UniProt P30550). The experiment is described as follows: Binding affinity against [125 I][4Tyr]-bombesin labeled cloned human GRP(gastrin releasing peptide) receptors stably expressed in CHO cells. In kind it is cell-based.
Experiment [2] deals with T1, Neuromedin-B receptor (Homo sapiens, UniProt P28336). The experiment is described as follows: Binding affinity against [125 I][4Tyr]-bombesin labeled cloned human NMB receptor stably expressed in CHO cells. The class given is cell-based.
Target sequence in this assay (P28336 whole entry): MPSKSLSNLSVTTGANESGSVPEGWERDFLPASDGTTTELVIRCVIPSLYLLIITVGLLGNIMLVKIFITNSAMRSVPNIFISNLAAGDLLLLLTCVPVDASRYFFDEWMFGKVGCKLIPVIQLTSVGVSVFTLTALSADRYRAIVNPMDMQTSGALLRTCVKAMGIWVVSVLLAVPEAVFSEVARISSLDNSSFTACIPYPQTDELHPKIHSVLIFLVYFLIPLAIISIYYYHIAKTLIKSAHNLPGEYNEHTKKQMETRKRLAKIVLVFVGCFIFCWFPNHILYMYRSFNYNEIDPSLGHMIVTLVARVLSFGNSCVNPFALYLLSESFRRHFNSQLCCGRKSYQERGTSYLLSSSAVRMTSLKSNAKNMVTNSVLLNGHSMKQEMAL
Experiment [3] addresses T1, Neuromedin-B receptor. The experiment is described as follows: Inhibition of the NMB evoked increases in chloride currents in xenopus oocytes expressing human NMB receptor. In kind it is functional, cell-based. The following applies: Oocyte.
Target sequence in this assay (P28336 whole entry, looked up): as the sequence (P28336 whole entry) above
In experiment [4] the target is T1, Neuromedin-B receptor. The experiment is described as follows: Inhibition of the NMB induced acidification response at human NMB receptor expressed in CHO cell. The class given is functional, cell-based.
Target sequence in this assay (P28336 whole entry, looked up): as the sequence (P28336 whole entry) above
The target in experiment [5] is T1, Neuromedin-B receptor. The experiment is described as follows: Binding affinity against human NMB receptor was determined.
Target sequence in this assay (P28336 whole entry): as above
The target of experiment [6] is T2, Neuromedin-B receptor (Rattus norvegicus, UniProt P24053).
T2 sequence (P24053 whole entry): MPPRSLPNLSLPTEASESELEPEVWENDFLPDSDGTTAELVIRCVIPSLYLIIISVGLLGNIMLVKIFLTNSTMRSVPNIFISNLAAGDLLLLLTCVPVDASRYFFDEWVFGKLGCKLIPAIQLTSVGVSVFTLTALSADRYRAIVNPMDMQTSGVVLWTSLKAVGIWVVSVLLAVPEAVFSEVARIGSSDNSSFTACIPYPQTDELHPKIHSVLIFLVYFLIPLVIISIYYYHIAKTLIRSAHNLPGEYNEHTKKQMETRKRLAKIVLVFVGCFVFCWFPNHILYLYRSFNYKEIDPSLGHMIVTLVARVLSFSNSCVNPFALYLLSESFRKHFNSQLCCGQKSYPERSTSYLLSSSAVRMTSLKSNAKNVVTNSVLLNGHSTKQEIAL
The experiment is described as follows: Binding affinity against NMB receptor in rat olfactory bulb was determined using [125I]-[Tyr4] bombesin.

Chain of Gastrin-releasing peptide receptor (P30550 whole entry): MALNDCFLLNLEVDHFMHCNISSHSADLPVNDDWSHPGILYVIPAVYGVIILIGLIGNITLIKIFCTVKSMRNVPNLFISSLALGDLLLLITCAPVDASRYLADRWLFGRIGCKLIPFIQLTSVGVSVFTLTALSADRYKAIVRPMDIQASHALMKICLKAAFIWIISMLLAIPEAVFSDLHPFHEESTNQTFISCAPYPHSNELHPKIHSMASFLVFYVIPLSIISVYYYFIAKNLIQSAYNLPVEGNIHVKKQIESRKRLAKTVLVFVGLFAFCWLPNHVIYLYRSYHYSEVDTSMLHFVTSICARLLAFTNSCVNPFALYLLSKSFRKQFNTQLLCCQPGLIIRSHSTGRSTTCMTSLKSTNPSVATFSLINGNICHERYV

Consider `CC(C)c1cccc(C(C)C)c1NC(=O)NC(C)(Cc1c[nH]c2ccccc12)C(=O)NCCc1ccccc1` (stereo not drawn), for which the results for the inhibitory constant (Ki) (in experiment [1]; at Neuromedin-B receptor [2]) were > 10000 nM and 450 nM, respectively.
For the molecule `CC(C)c1cccc(C(C)C)c1NC(=O)NC(C)(Cc1c[nH]c2ccccc12)C(=O)NC1CCCCC1` (stereo not drawn), the values for the Ki (in experiment [1]; on Neuromedin-B receptor [2]) were > 10000 nM and 310 nM, respectively.
Take `CC(C)c1cccc(C(C)C)c1NC(=O)N[C@](C)(Cc1c[nH]c2ccccc12)C(=O)NC1CCCc2ccccc21` (stereo partly drawn): the Ki in experiment [1] was > 10000 nM; on Neuromedin-B receptor [2], 14 nM.
As for `CC(C)c1cccc(C(C)C)c1NC(=O)NC(C)(Cc1c[nH]c2ccccc12)C(=O)N[C@@H]1COC(C)(C)OC1c1ccccc1` (stereo partly drawn), the inhibition constant (Ki) was > 10000 nM in experiment [1] and 420 nM on Neuromedin-B receptor [2].
For the molecule `CC(C)c1cccc(C(C)C)c1NC(=O)NC(C)(Cc1c[nH]c2ccccc12)C(=O)NC1CCCc2ccccc21` (stereo not drawn), the Ki was > 10000 nM in experiment [1] and 72 nM on Neuromedin-B receptor [2].
Turning to `CC(C)c1cccc(C(C)C)c1NC(=O)NC(C)(Cc1c[nH]c2ccccc12)C(=O)N[C@H]1COC(C)(C)OC1c1ccccc1` (stereo partly drawn), the Ki is > 10000 nM in experiment [1] and 95 nM on Neuromedin-B receptor [2].
The corresponding values for `CC(C)c1cccc(C(C)C)c1NC(=O)N[C@@](C)(Cc1c[nH]c2ccccc12)C(=O)NC1CCCCC1c1ccccc1` (stereo partly drawn) are > 10000 nM and 76 nM.
The corresponding values for `CC(C)c1cccc(C(C)C)c1NC(=O)NC(Cc1c[nH]c2ccccc12)C(=O)NC(C)C1CCCCC1` (stereo not drawn) are > 10000 nM and 440 nM.
For the molecule `CC(C)c1cccc(C(C)C)c1NC(=O)NC(Cc1c[nH]c2ccccc12)C(=O)N(C)CC1CCCCC1` (stereo not drawn), the Ki in experiment [1] was > 10000 nM.
As to `CC(C)c1cccc(C(C)C)c1NC(=O)NC(Cc1c[nH]c2ccccc12)C(=O)NCC1CCCCC1` (stereo not drawn), the results for the Ki (in experiment [1]; on Neuromedin-B receptor [2]) were > 10000 nM and 120 nM, respectively.
`CC(C)c1cccc(C(C)C)c1NC(=O)N[C@@](C)(Cc1c[nH]c2ccccc12)C(=O)NCC1(c2ccccn2)CCCCC1`: the values for the Kb at Neuromedin-B receptor [3] and at Neuromedin-B receptor [4] were 7.5 nM and 7.6 nM, respectively. For the same molecule, the Ki in experiment [1] was > 10000 nM; on Neuromedin-B receptor [5], 6.3 nM; on Neuromedin-B receptor [2] it was 6.3 nM. Also, at Neuromedin-B receptor [6], the IC50 turned out to be 150 nM.
As for `CC(C)c1cccc(C(C)C)c1N(C)C(=O)NC(Cc1c[nH]c2ccccc12)C(=O)NCC1CCCCC1` (stereo not drawn), the Ki in experiment [1] was > 10000 nM; at Neuromedin-B receptor [2] it was 260 nM.
The corresponding values for `CC(C)c1cccc(C(C)C)c1NC(=O)NC(C)(Cc1c[nH]c2ccccc12)C(=O)NC1CCc2ccccc2C1` (stereo not drawn) are > 10000 nM and 310 nM.
`CC(C)c1cccc(C(C)C)c1NC(=O)N(C)C(Cc1c[nH]c2ccccc12)C(=O)NCC1CCCCC1` (stereo not drawn) had a Ki in experiment [1] of 1500 nM.
Consider `CC(C)c1cccc(C(C)C)c1NC(=O)NC(C)(Cc1c[nH]c2ccccc12)C(=O)NC1COC(C)(C)OC1` (stereo not drawn), for which the figures for the inhibitory constant (Ki) (in experiment [1]; on Neuromedin-B receptor [2]) were > 10000 nM and 630 nM, respectively.
For the molecule `CC(C)c1cccc(C(C)C)c1NC(=O)NC(C)(Cc1c[nH]c2ccccc12)C(=O)NCC1CCCCC1` (stereo not drawn), the figures for the Ki (in experiment [1]; at Neuromedin-B receptor [2]) were > 10000 nM and 125 nM, respectively.
As for `CC(C)c1cccc(C(C)C)c1NC(=O)NC(C)(Cc1c[nH]c2ccccc12)C(=O)NCC1(c2ccccc2)CCCCC1` (stereo not drawn), the Ki is > 10000 nM in experiment [1] and 7.8 nM on Neuromedin-B receptor [2].
The corresponding values for `CNC(=O)C(C)(Cc1c[nH]c2ccccc12)NC(=O)Nc1c(C(C)C)cccc1C(C)C` (stereo not drawn) are > 10000 nM and 3700 nM.
